Results published in PMC12362764, “Novel Cyano‐Artemisinin Dimer ZQJ29 Targets PARP1 to Induce Ferroptosis in Pancreatic Cancer Treatment” (Advanced Science, 2025).

How the values were obtained:
[1] = test system: PANC-1 cells; assay: Cell cycle analysis (PI, flow cytometry), PANC-1; assay type: cell-based; details: PANC-1, 24 h
Procedure: PANC‐1 and KP4 cells were placed in 6 cm dishes and exposed to designated concentrations of ZQJ29 (1 µM) for 24 h before trypsinization. After centrifugation, the cells were secured and preserved in ice‐cold 70% ethanol and stored at 4 °C for 24 h. They were then thoroughly washed with PBS multiple times. Next, the fixed cells were incubated in PBS supplemented with RNase and PI solution for 30 min at 37 °C, protected from light exposure. Cell cycle progression was assessed using a flow cytometer. This experimental procedure was systematically conducted in three separate trials, with each trial done in triplicate. Cell cycle kits were obtained from Beyotime (Shanghai, China).

[2] = test system: PARP1; assay: PARP1 expression (western blot, immunofluorescence); assay type: cell-based
Procedure: For western blotting analysis, ZQJ29‐treated cells were lysed with RIPA Lysis Buffer (Yeasen, Shanghai, China) containing protease and phosphatase inhibitors (Yeasen, Shanghai, China) on ice. The cell lysates were quantified using the BCA Protein Assay Kit (Beyotime, Shanghai, China). Samples were subjected to SDS‐PAGE and transferred to PVDF membranes (Beyotime, Shanghai, China). The membranes were blocked with 5% nonfat milk in TBST (Buffered Saline with 0.1% Tween 20) for 1 h, followed by overnight incubation at 4 °C with primary antibodies. After washing the membranes three times with TBST, they were incubated with the appropriate secondary antibodies for 2 h at room temperature. Following another three times with TBST, the bands on the membranes were detected using the ECL‐Plus Western Blotting Detection System (Yeasen, Shanghai, China).
PARP1 expression in the cell nucleus was detected using immunofluorescence. The cells were seeded in a 12‐well plate and treated with ZQJ29 (0, 1, 2.5, and 5 µM) after complete adhesion. After a specific duration of treatment, fixation, blocking, and antibody incubation were performed, and images were captured using a Cytation 5‐cell imaging microplate detection system.

[3] = test system: PANC-1 and KP4 cells; assay: Mitochondrial membrane potential assay (JC-1); assay type: cell-based; details: 24 h
Procedure: Mitochondrial membrane potential assay kits with JC‐1 (Beyotime, Shanghai, China) were used to measure the alteration of mitochondrial membrane potential (ΔΨm). After being treated with different concentrations of ZQJ29 (0, 1, 2.5, and 5 µM) for 24 h, cells were treated with the positive control reagent CCCP (10 µM) for 30 min at 37 °C. The cells were rinsed once with PBS, and the JC‐1 staining working solution was added for 30 min at 37 °C in the dark. Afterward, the cells were washed twice with 1 × JC‐1 staining buffer. Fluorescent images of the JC‐1‐stained cells were captured with a fluorescence microscope Cytation5 (BioTek, America).

[4] = test system: JHH7; assay: CCK-8 cytotoxicity assay, JHH7; assay type: cell-based; details: JHH7, 72 h
Procedure: (§1) Cell viability was evaluated using the Cell Counting Kit‐8 (Beyotime, Shanghai, China) assay. Cells were seeded in 96‐well plates at a density of 2×10^3 cells to allow for attachment. After treatment with ZQJ29 (0.001, 0.01, 0.1, 10, and 25 µM) for 24, 48, and 72 h, 10 µL of CCK‐8 solution was added to each well and incubated for 1 h. The optical density values were then measured at 450 nm using a multifunctional enzyme‐linked immunosorbent assay reader (Tecan, Spark, Switzerland).

[5] = test system: PANC-1 and KP4 cells; assay: Wound healing (cell migration) assay; assay type: cell-based; details: 0, 1, 2.5, 5 µM; 12 and 24 h
Procedure: PANC‐1 and KP4 cells were cultured in 6‐well plates until complete confluence was reached. A “scratch” or “wound” was made with a sterile 10 µL pipette tip. Following this, the cells were treated with varying concentrations of ZQJ29 (0, 1, 2.5, and 5 µM). After 12 and 24 h, migration activity were observed and captured using an inverted EVOS microscope (Thermo Fisher Scientific, USA). The number of migrated cells were then quantified.

[6] = Toxicity in tumor-bearing mice (body weight, ALT/AST, H&E); assay type: in vivo, BALB/c nude mice
Procedure: Five‐week‐old male BALB/c nude mice were purchased from Shanghai Jihui Laboratory Animal Breeding Co., Ltd. (Shanghai, China). After a one‐week acclimatization period, PANC‐1 cells were subcutaneously injected at a dose of 5 × 10^6 cells per mouse. Four weeks post‐injection, once tumor volumes reached 50–100 mm^3, the tumor‐bearing animals were randomly divided into four groups, each consisting of six animals. ZQJ29 was prepared in a 0.5% CMC‐Na solution, while OXA was dissolved in saline. The control group was treated with oral gavage of 0.5% CMC‐Na, while the positive control group was administered intraperitoneal injections of OXA at a dosage of 3 mg kg^−1 every three days. The test groups were treated with oral gavage of ZQJ29 at dosages of 25 and 50 mg kg day^−1. Mouse weights were monitored every other day. Tumor measurements were taken every other day using calipers, and the tumor volume was calculated using the following formula: ½ × length × width^2. Drug administered continued for three weeks. After blood collection at the end of the administration, the mice were humanely euthanized, and their vital organs were promptly harvested, preserved, and embedded in paraffin for H&E staining.
Following the experiments, organs from mice, including hearts, livers, spleens, lungs, and kidneys were swiftly collected and fixed in 4% paraformaldehyde overnight. The tissues were then embedded in paraffin. Afterward, 4‐µm‐thick sections were produced and stained using H&E. Images of these sections were captured with a Leica DM4000b microscope (Germany).
Blood samples were collected and placed in a biochemical incubator for 30 min, followed by centrifugation at 6000 rpm for 10 min. The supernatant was used to measure the following indicators: ALT and AST (both from Jiancheng, Nanjing, China).

[7] = target: PARP1 (Homo sapiens, UniProt P09874); assay: SPR analysis (Biacore S200); assay type: binding; set-up: purchased Sino Biological 11040‐H08B; details: 25 °C, Steady State Affinity model
Procedure: The interaction between ZQJ29 and PARP1 was assessed by SPR with the Biacore S200 system at 25 °C (Cytiva). Recombinant human PARP1 protein (Sino Biological, 11040‐H08B) was immobilized on an activated carboxymethylated 5 (CM5) sensor chip using the amine coupling method. Gradient concentrations of 3 were injected at a flow rate of 40 µL min^−1 in a running buffer [5% (v/v) DMSO in PBS·P]. The results were analyzed with the Biacore evaluation software (S200 version). Data were fitted to the Steady State Affinity model, and kinetic parameters were derived.

[8] = test system: H1975; assay: CCK-8 cytotoxicity assay, H1975; assay type: cell-based; details: Homo sapiens, NCI-H1975, 72 h
Procedure: as §1

PARP1 (Homo sapiens, UniProt P09874), sequence (P09874 whole entry): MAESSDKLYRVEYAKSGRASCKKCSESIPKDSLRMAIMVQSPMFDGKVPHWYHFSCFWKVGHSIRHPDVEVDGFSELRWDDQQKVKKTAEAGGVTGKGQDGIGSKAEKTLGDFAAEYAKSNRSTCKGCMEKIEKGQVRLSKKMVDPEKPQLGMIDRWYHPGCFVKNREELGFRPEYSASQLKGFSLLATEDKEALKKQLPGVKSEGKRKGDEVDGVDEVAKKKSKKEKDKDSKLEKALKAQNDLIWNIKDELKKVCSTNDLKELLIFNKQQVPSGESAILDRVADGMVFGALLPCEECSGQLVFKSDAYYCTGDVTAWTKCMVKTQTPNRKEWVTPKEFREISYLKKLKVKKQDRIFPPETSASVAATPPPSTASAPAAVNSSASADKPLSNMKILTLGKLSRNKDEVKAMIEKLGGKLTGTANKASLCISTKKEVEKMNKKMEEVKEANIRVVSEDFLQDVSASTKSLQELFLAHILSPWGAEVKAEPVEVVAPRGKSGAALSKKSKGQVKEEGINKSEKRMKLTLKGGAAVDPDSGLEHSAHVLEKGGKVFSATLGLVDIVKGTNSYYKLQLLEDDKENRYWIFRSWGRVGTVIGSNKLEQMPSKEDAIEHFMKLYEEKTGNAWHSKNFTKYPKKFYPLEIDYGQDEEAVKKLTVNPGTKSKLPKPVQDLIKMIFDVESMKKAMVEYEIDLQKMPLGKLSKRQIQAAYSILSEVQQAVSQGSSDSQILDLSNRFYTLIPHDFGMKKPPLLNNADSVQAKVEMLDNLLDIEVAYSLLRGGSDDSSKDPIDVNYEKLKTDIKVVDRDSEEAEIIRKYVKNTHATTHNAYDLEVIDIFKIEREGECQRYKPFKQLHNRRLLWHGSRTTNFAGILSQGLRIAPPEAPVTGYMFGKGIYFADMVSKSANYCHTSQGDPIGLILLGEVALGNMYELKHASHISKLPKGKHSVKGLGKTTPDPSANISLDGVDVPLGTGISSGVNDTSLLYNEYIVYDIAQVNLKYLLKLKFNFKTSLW

CC1CCC2C(C)C(OCCN(C#N)CCOC3OC4OC5(C)CCC6C(C)CCC(C3C)C46OO5)OC3OC4(C)CCC1C32OO4 (centres unmarked) [ZQJ29]
cell cycle arrest [1]: remarkable G2/M phase arrest
nucleoplasmic PARP1 levels (immunofluorescence) ([2]; PANC-1 and KP4 cells, 0, 1, 2.5, 5 µM, 24 h): remarkably reduced
PARP1 expression (western blot) ([2]; PANC-1 and KP4 cells, time- and concentration-dependent): significantly reduced
mitochondrial membrane potential (MMP), JC-1 [3]: decrease in MMP
IC50 [4]: 0.791 ± 0.305 µM
migration abilities [5]: impaired
post-experiment levels of ALT and AST ([6]; ZQJ29 50 mg/kg, OXA 3 mg/kg i.p.): no significant alterations
major organ damage (H&E staining) ([6]; hearts, livers, spleens, lungs, kidneys): no significant major organ damage
body weight during the whole treatment period ([6]; tumor-bearing nude mice, three weeks): remained stable
Kd [7]: 2.86 µM
IC50 [8]: 2.19 ± 0.113 µM
